US20250134809A1, “A PHYTOACTIVE ENCAPSULATED FORMULATION FOR NEURODEGENERATIVE DISEASES” (Gidaa Life Sciences Pvt. Ltd., priority 2022, published 2025)

Legend:
Assay type in all cases: in vivo, rat
[1] = system: Alzheimer's Disease model (Aluminium Chloride induced), Wistar male rats; assay: Morris water maze in AlCl3-induced Alzheimer's Disease model; settings: G3 (Donepezil orally)
Experimental: (§1) This compound PHY-001 (Named as MAG XXI in Animal study by CEFTE) has also been subjected to in-vivo animal study at the animal study facility attached to SRMC (Sri Ramachandra Medical College) Hospital, Chennai. In this study, the therapeutic efficacy of this compound was evaluated against Alzheimer's Disease model, by inducing Alzheimer's like pathology by intra peritoneal administration of Aluminium Chloride (Established animal model for studying Alzheimer's disease and efficacy evaluation of a therapeutic intervention).
(§2) Based on the pilot study observations, a main study was conducted. Totally 30 Wistar male rats were used for the study. Animals were formed into five groups, Group 1-rats served as a control group, animals in group 2 to 5 were injected with AlCl3 intra-peritoneally once daily for four weeks.
The results of number of times crossed centre at Morris water maze and escape latency which is the […] the animal could find the platform and escape (in 3 minutes), are presented in table 1 & table 2.

[2] = system: Alzheimer's Disease model (Aluminium Chloride induced), Wistar male rats; assay: Elevated plus maze in AlCl3-induced Alzheimer's Disease model; settings: G3 (Donepezil orally); for Elevated plus maze: No. of DF (defacation) / Elevated plus maze: No. of UP (urine pool): Latency period 3 minutes
Experimental: as §1, §2

[3] = system: Alzheimer's Disease model (Aluminium Chloride induced), Wistar male rats; assay: Passive avoidance test in AlCl3-induced Alzheimer's Disease model; settings: G3 (Donepezil orally)
Experimental: as §1, §2
Significant alteration in dark compartment movement at all weeks is noticed in G2 group when compared to G1 which elucidate the learning memory defect.

Compound: COc1cc2c(cc1OC)C(=O)C(CC1CCN(Cc3ccccc3)CC1)C2 (stereo not shown) [Donepezil]
- times crossed centre and escape latency when compared to G2 [1]: significant elevation
- Escape latency (in 3 minutes): No. of times find platform and escape ([1]; WK 1): 3.33
- Morris water maze: No. of times crossed center in 1 minute (mean values) ([1]; WK 1): 2.5
- Escape latency (in 3 minutes): No. of times find platform and escape ([1]; WK 2): 2.67
- Morris water maze: No. of times crossed center in 1 minute (mean values) ([1]; WK 2): 2.67
- Escape latency (in 3 minutes): No. of times find platform and escape ([1]; WK 3): 3.33
- Morris water maze: No. of times crossed center in 1 minute (mean values) ([1]; WK 3): 2.83
- Escape latency (in 3 minutes): No. of times find platform and escape ([1]; WK 4): 3.5
- Morris water maze: No. of times crossed center in 1 minute (mean values) ([1]; WK 4): 3.33
- Elevated plus maze: No. of DF (defacation) ([2]; WK 1): 1
- Elevated plus maze: No. of UP (urine pool) ([2]; WK 1): 0.5
- Elevated plus maze: No. of DF (defacation) ([2]; WK2): 0.5
- Elevated plus maze: No. of UP (urine pool) ([2]; WK2): 0.17
- Elevated plus maze: No. of DF (defacation) ([2]; WK 3): 1.17
- Elevated plus maze: No. of UP (urine pool) ([2]; WK 3): 1.33
- Elevated plus maze: No. of DF (defacation) ([2]; WK 4): 0.83
- Elevated plus maze: No. of UP (urine pool) ([2]; WK 4): 1.17
- Elevated plus maze: No. of entries in Closed arm ([2]; WK 1): 3.5
- Elevated plus maze: No. of entries in Open arm ([2]; WK 1): 0.33
- Elevated plus maze: No. of entries in Closed arm ([2]; WK 2): 4.17
- Elevated plus maze: No. of entries in Open arm ([2]; WK 2): 0.33
- Elevated plus maze: No. of entries in Closed arm ([2]; WK 3): 2.5
- Elevated plus maze: No. of entries in Open arm ([2]; WK 3): 0
- Elevated plus maze: No. of entries in Closed arm ([2]; WK 4): 2.67
- Elevated plus maze: No. of entries in Open arm ([2]; WK 4): 1.67
- number of entries in open arm and closed arm when compared to G2 ([2]; week 4): significant elevation
- dark compartment movement when compared to G2 [3]: significant reversal
- Passive avoidance: latency to enter dark chamber (mean values) ([3]; WK 1): 31.83 s
- Passive avoidance: latency to enter dark chamber (mean values) ([3]; WK 2): 42 s
- Passive avoidance: latency to enter dark chamber (mean values) ([3]; WK 3): 45.33 s
- Passive avoidance: latency to enter dark chamber (mean values) ([3]; WK 4): 47 s
